This note sets out measurements from ChEMBL document CHEMBL1201862, “PubChem BioAssay data set” (2004).

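Protocol summary: plate cells (96-well), add compound at 5 concentrations, incubate 48 h, interpolate endpoints linearly. GI50 marks 50% less growth.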 Calls of active or inactive are those of the source. Rule as the data show it: active = GI50 up to about 1.1 µM and inactive = higher.

Among the test systems are 786-0; A549; COLO 205; HCC 2998; HOP-62; HOP-92; MOLT-4; NCI-H226; OVCAR-3; RPMI-8226; SF-539; SK-OV-3; SN12C; SNB-78; TK-10; UACC-62; UO-31; CCRF-CEM.
What all share (assay): growth of human tumour cells (NCI), 48 h

In the case of `C[C@@]12CCC(=O)c3coc(c31)C(=O)c1cc3c(cc12)C(=O)C=CC3=O` [HELENAQUINONE], the GI50 in the assay on 786-0 is 17.2 µM (inactive); with A549 it was 45.2 µM (inactive); in the assay on COLO 205, 16 µM (inactive); with HCC 2998 it was > 71.3 µM (inactive); with HOP-62, > 100 µM (inactive); with HOP-92 it was 6.93 µM (inactive). The GI50 with MOLT-4 was 14.3 µM (inactive); in the assay with NCI-H226, 29 µM (inactive); with OVCAR-3 it was 18.7 µM (inactive); in the assay on RPMI-8226, 64.6 µM (inactive); in the assay on SF-539, 17.6 µM (inactive); with SK-OV-3 it was > 100 µM (inactive). Moreover, the GI50 is 16.6 µM (inactive) in the assay with SN12C; 22 µM (inactive) in the assay with SNB-78; 31 µM (inactive) with TK-10; 15.5 µM (inactive) with UACC-62; 17.2 µM (inactive) in the assay with UO-31.
Regarding `CCN(CC)c1ccc(C(=C2C=CC(=[N+](CC)CC)C=C2)c2ccccc2)cc1`, the GI50 with 786-0 was 0.0352 µM (active); in the assay with A549, 0.0348 µM (active); in the assay with CCRF-CEM it was 0.0121 µM (active); in the assay on COLO 205, 0.0307 µM (active); in the assay on HCC 2998, 0.0351 µM (active); in the assay with HOP-62 it was 0.102 µM (active). Further, the GI50 with HOP-92 is 0.0338 µM (active); in the assay with MOLT-4, 0.0151 µM (active); in the assay on NCI-H226, 0.023 µM (active); in the assay with RPMI-8226 it was < 0.01 µM (active); in the assay on SF-539, 0.0462 µM (active); in the assay on SK-OV-3, 0.0304 µM (active). The GI50 was 0.0254 µM (active) in the assay on SN12C, 0.044 µM (active) with SNB-78, 0.0451 µM (active) in the assay on UACC-62 and 0.0366 µM (active) in the assay with UO-31.
On to `O=c1c2cc3ccccc3n2c(=O)c2cc3ccccc3n12`, for which the GI50 in the assay on 786-0, in the assay with A549, in the assay with CCRF-CEM, in the assay with HCC 2998, in the assay with HOP-92 and in the assay with MOLT-4 was > 100 µM (inactive) each time. Moreover, the GI50 in the assay with NCI-H226, with OVCAR-3, with RPMI-8226, in the assay on SF-539, with SN12C and in the assay on SNB-78 was > 100 µM (inactive) each time. Moreover, the GI50 in the assay on TK-10, with UACC-62 and in the assay with UO-31 was > 100 µM (inactive) throughout.
In the case of `c1cc(-c2cn[nH]c2)cc(-c2cn[nH]c2)c1`, the GI50 was 37.3 µM (inactive) in the assay with 786-0; 20.1 µM (inactive) with A549; 29.4 µM (inactive) in the assay on CCRF-CEM; 53.3 µM (inactive) with COLO 205; 88.9 µM (inactive) in the assay on HCC 2998; 17.8 µM (inactive) with HOP-62. For the same compound, the GI50 with HOP-92 was > 100 µM (inactive); with MOLT-4, 33.1 µM (inactive); in the assay with OVCAR-3, 33.5 µM (inactive); with RPMI-8226, 32.7 µM (inactive); in the assay on SF-539 it was 17.9 µM (inactive); with SK-OV-3, 8.55 µM (inactive). The GI50 in the assay with SN12C was 39.4 µM (inactive); with SNB-78, 80.7 µM (inactive); in the assay on TK-10, 16.7 µM (inactive); in the assay with UACC-62 it was 11.6 µM (inactive); in the assay on UO-31 it was 16 µM (inactive).
Regarding `O=[N+]([O-])c1cccc(C2=NN(c3ccccc3)C[N+](c3ccc(Br)cc3)=N2)c1`, the GI50 in the assay on 786-0 was > 100 µM (inactive); with A549 it was > 100 µM (inactive); in the assay with COLO 205, > 100 µM (inactive); in the assay with HCC 2998 it was 70.8 µM (inactive); in the assay with HOP-62, > 100 µM (inactive); with HOP-92, 83.2 µM (inactive). Moreover, the GI50 is 35.7 µM (inactive) in the assay on MOLT-4; 82 µM (inactive) in the assay with RPMI-8226; > 100 µM (inactive) in the assay with SF-539; > 100 µM (inactive) with SK-OV-3; > 100 µM (inactive) in the assay with SN12C; 34.4 µM (inactive) in the assay with SNB-78. Moreover, the GI50 with TK-10 was > 100 µM (inactive); in the assay with UACC-62, > 100 µM (inactive); in the assay on UO-31, 96.4 µM (inactive).
For `O=C(CCc1nnc(S)[nH]1)NC12CC3CC(CC(C3)C1)C2`, the GI50 in the assay on 786-0, with A549, with CCRF-CEM, with COLO 205, with HCC 2998 and in the assay with HOP-62 was > 100 µM (inactive) in each case. Also, the GI50 with HOP-92, in the assay on NCI-H226, in the assay with OVCAR-3, with SF-539, with SK-OV-3 and in the assay on SN12C was > 100 µM (inactive) in each case. For the same compound, the GI50 with SNB-78, with TK-10, with UACC-62 and in the assay on UO-31 was > 100 µM (inactive) in each case.
For the compound `Cc1nn2c(nc1=O)sc1ccc3ccccc3c12`, the GI50 with 786-0, in the assay with A549, in the assay on CCRF-CEM, in the assay on COLO 205, in the assay with HCC 2998 and with HOP-62 was > 100 µM (inactive) each time. Besides, the GI50 in the assay with HOP-92, in the assay on MOLT-4, in the assay on NCI-H226, in the assay with OVCAR-3, in the assay on SF-539 and with SK-OV-3 was > 100 µM (inactive) throughout. Further, the GI50 in the assay with SN12C, in the assay with SNB-78, in the assay on TK-10, in the assay with UACC-62 and in the assay on UO-31 was > 100 µM (inactive) each time.
As for `O=c1c2cc(Br)ccc2[nH]c(=S)n1-c1ccc(Br)cc1`, the GI50 with 786-0 is 40.6 µM (inactive); in the assay on A549, > 100 µM (inactive); in the assay with COLO 205 it was > 100 µM (inactive); in the assay on HCC 2998, > 100 µM (inactive); in the assay on HOP-62, 67.6 µM (inactive); in the assay on HOP-92, 23 µM (inactive). The GI50 with MOLT-4 is > 100 µM (inactive); with NCI-H226 it was > 100 µM (inactive); with OVCAR-3, 52.4 µM (inactive); in the assay with RPMI-8226, > 100 µM (inactive); in the assay with SF-539 it was 97.1 µM (inactive); in the assay on SN12C, 75 µM (inactive). The GI50 in the assay on SNB-78, in the assay with TK-10 and in the assay with UO-31 was > 100 µM (inactive) throughout.
With `CCOC(=O)/C(C#N)=C1\N[C@H](C(=O)OCC)CO1`, the GI50 in the assay on 786-0, in the assay with A549, in the assay on CCRF-CEM, in the assay on COLO 205, in the assay on HCC 2998 and in the assay with HOP-62 was > 100 µM (inactive) throughout. The GI50 in the assay with MOLT-4, with NCI-H226, in the assay on OVCAR-3, in the assay on RPMI-8226, in the assay on SF-539 and in the assay on SN12C was > 100 µM (inactive) in each case. Further, the GI50 in the assay on SNB-78, with UACC-62 and in the assay with UO-31 was > 100 µM (inactive) in each case.
Consider `CCC(=O)Nc1nc2c(ncn2C2OC(COC(=O)CC)C(OC(=O)CC)C2OC(=O)CC)c(=O)[nH]1` (stereo not given), for which the GI50 in the assay with 786-0, with A549, with HCC 2998, in the assay with HOP-62, in the assay with MOLT-4 and in the assay with NCI-H226 was > 100 µM (inactive) each time. The GI50 with OVCAR-3, in the assay on RPMI-8226, in the assay with SF-539, with SK-OV-3, in the assay on SN12C and in the assay on SNB-78 was > 100 µM (inactive) in each case. The GI50 in the assay on UACC-62 and in the assay with UO-31 was > 100 µM (inactive) each time.
On to `CS(=O)(=O)N(CCC#N)c1ccc(/C=C2\N=C(c3ccccc3Cl)OC2=O)cc1`, for which the GI50 in the assay on 786-0, in the assay on A549, in the assay with CCRF-CEM, in the assay with COLO 205, in the assay on HCC 2998 and with HOP-62 was > 100 µM (inactive) each time. In addition, the GI50 in the assay on MOLT-4, in the assay with NCI-H226, with OVCAR-3, in the assay on RPMI-8226, in the assay on SF-539 and in the assay with SK-OV-3 was > 100 µM (inactive) each time. Further, the GI50 with SN12C, in the assay with SNB-78, in the assay with TK-10, in the assay on UACC-62 and in the assay with UO-31 was > 100 µM (inactive) in each case.
`Cc1cc(N(CCC#N)S(C)(=O)=O)ccc1C=O`: the GI50 with 786-0, with A549, in the assay with CCRF-CEM, with COLO 205, with HCC 2998 and in the assay with HOP-62 was > 100 µM (inactive) each time. Further, the GI50 in the assay on MOLT-4, in the assay with NCI-H226, with OVCAR-3, in the assay with RPMI-8226, in the assay with SF-539 and with SK-OV-3 was > 100 µM (inactive) throughout. Further, the GI50 in the assay on SN12C, in the assay on SNB-78, in the assay on UACC-62 and in the assay with UO-31 was > 100 µM (inactive) each time.
